Test results from PubChem BioAssay AID192 (DTP/NCI, 2004).
Where “and” joins values, the source holds several entries; their conditions need not be identical. Equal entries are not always repeated. Toxic doses and inconclusive results are not listed.

Tested on: BDF1 mice, B16 melanoma ip, median survival T/C
Assay: NCI In Vivo Anticancer Drug Screen. Data for tumor model B16 Melanoma (intraperitoneal) in B6D2F1 (BDF1) mice
Conditions: endpoint: median survival time, higher = longer survival
Procedure, shortened: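 The ratio T/C compares compound-treated mice with vehicle-treated controls, using survival or tumor size as the endpoint in a transplantable tumor model.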

[1] = dose: 12.5 mg/kg/injection, schedule: Q01DX009 (ip), vehicle: saline with Tween-80
[2] = dose: 25.0 mg/kg/injection, schedule: Q01DX009 (ip), vehicle: saline with Tween-80
[3] = dose: 100.0 mg/kg/injection, schedule: Q01DX009 (ip), vehicle: Klucel (hydroxypropylcellulose) (HPC)
[4] = dose: 200.0 mg/kg/injection, schedule: Q01DX009 (ip), vehicle: Klucel (hydroxypropylcellulose) (HPC)
[5] = dose: 100.0 mg/kg/injection, schedule: Q01DX009 (ip), vehicle: saline with Tween-80
[6] = dose: 200.0 mg/kg/injection, schedule: Q01DX009 (ip), vehicle: saline with Tween-80
[7] = dose: 6.25 mg/kg/injection, schedule: Q01DX009 (ip), vehicle: saline with Tween-80
[8] = dose: 25.0 mg/kg/injection, schedule: Q01DX009 (ip), vehicle: Klucel (hydroxypropylcellulose) (HPC)
[9] = dose: 50.0 mg/kg/injection, schedule: Q01DX009 (ip), vehicle: Klucel (hydroxypropylcellulose) (HPC)
[10] = dose: 50.0 mg/kg/injection, schedule: Q01DX009 (ip), vehicle: saline with Tween-80
[11] = dose: 25.0 mg/kg/injection, schedule: Q01DX009 (ip), vehicle: saline
[12] = dose: 0.63 mg/kg/injection, schedule: Q01DX009 (ip), vehicle: saline
[13] = dose: 1.25 mg/kg/injection, schedule: Q01DX009 (ip), vehicle: saline
[14] = dose: 2.5 mg/kg/injection, schedule: Q01DX009 (ip), vehicle: saline
[15] = dose: 6.25 mg/kg/injection, schedule: Q01DX009 (ip), vehicle: saline

CSC(=S)N/N=C/c1ccccn1
T/C (dose: 0.75 mg/kg/injection, schedule: Q01DX009 (ip), vehicle: saline with Tween-80): 86 % of control
T/C (dose: 1.5 mg/kg/injection, schedule: Q01DX009 (ip), vehicle: saline with Tween-80): 89 % of control
T/C (dose: 3.0 mg/kg/injection, schedule: Q01DX009 (ip), vehicle: saline with Tween-80): 86 % of control
T/C (dose: 6.0 mg/kg/injection, schedule: Q01DX009 (ip), vehicle: saline with Tween-80): 94 % of control
T/C [1]: 110 % of control
T/C [2]: 105 % of control

CC1NC(=O)NC1=O (centres undefined)
T/C [3]: 90 % of control
T/C [4]: 100 % of control
T/C (dose: 400.0 mg/kg/injection, schedule: Q01DX009 (ip), vehicle: Klucel (hydroxypropylcellulose) (HPC)): 102 % of control

CCc1cc(C)cc(OC(=O)Nc2ccc(Cl)c(Cl)c2)c1
T/C [5]: 101 % of control
T/C [6]: 92 % of control
T/C (dose: 400.0 mg/kg/injection, schedule: Q01DX009 (ip), vehicle: saline with Tween-80): 87 % of control

ClCCCCCCBr
T/C (dose: 75.0 mg/kg/injection, schedule: Q01DX009 (ip), vehicle: Klucel (hydroxypropylcellulose) (HPC)): 122 % of control
T/C (dose: 150.0 mg/kg/injection, schedule: Q01DX009 (ip), vehicle: Klucel (hydroxypropylcellulose) (HPC)): 122 % of control
T/C (dose: 300.0 mg/kg/injection, schedule: Q01DX009 (ip), vehicle: Klucel (hydroxypropylcellulose) (HPC)): 105 % of control

C[CH2][Sn]1([CH2]C)[O]OC(c2ccccc2)[O]1 (centres undefined)
T/C (dose: 0.78 mg/kg/injection, schedule: Q01DX009 (ip), vehicle: saline with Tween-80): 106 % of control
T/C (dose: 1.56 mg/kg/injection, schedule: Q01DX009 (ip), vehicle: saline with Tween-80): 105 % of control and 111 % of control
T/C (dose: 3.12 mg/kg/injection, schedule: Q01DX009 (ip), vehicle: saline with Tween-80): 109 % of control and 112 % of control
T/C [7]: 113 % of control and 116 % of control
T/C [1]: 101 % of control and 117 % of control

Clc1ccc(COC(Cn2ccnc2)c2ccc(Cl)cc2Cl)c(Cl)c1 (centres undefined)
T/C [8]: 106 % of control
T/C [9]: 115 % of control
T/C [3]: 96 % of control
T/C [4]: 106 % of control

C1CC2(CCN1)SSC1(CCNCC1)S2
T/C (dose: 100.0 mg/kg/injection, schedule: Q04DX003 (ip), vehicle: saline): 100 % of control
T/C (dose: 200.0 mg/kg/injection, schedule: Q04DX003 (ip), vehicle: saline): 100 % of control

Cc1cc(N(C)C)cc(C)c1N=Nc1cc[n+]([O-])cc1
T/C (dose: 3.13 mg/kg/injection, schedule: Q01DX009 (ip), vehicle: saline with Tween-80): 98 % of control
T/C [7]: 100 % of control
T/C [1]: 105 % of control
T/C [2]: 108 % of control
T/C [10]: 95 % of control and 113 % of control

Cc1ccc(C)c(C(=O)CCCCl)c1
T/C [2]: 118 % of control
T/C [10]: 97 % of control
T/C [5]: 113 % of control

CC(=O)NNC(=O)c1ccccn1
T/C [2]: 87 % of control
T/C (dose: 25.0 mg/kg/injection, schedule: Q01DX009 (ip), vehicle: water): 93 % of control and 116 % of control
T/C (dose: 50.0 mg/kg/injection, schedule: Q01DX009 (ip), vehicle: water): 110 % of control and 113 % of control
T/C (dose: 100.0 mg/kg/injection, schedule: Q01DX009 (ip), vehicle: water): 93 % of control and 100 % of control
T/C [6]: 89 % of control

Cc1cc(O)ccc1[N+](=O)[O-]
T/C [11]: 119 % of control
T/C (dose: 50.0 mg/kg/injection, schedule: Q01DX009 (ip), vehicle: saline): 123 % of control
T/C (dose: 100.0 mg/kg/injection, schedule: Q01DX009 (ip), vehicle: saline): 104 % of control

COc1ccc(C(=O)C(C)C(O)C(=O)O)c(O)c1C (centres undefined)
T/C (dose: 100.0 mg/kg/injection, schedule: Q01DX009 (ip), vehicle: other): 93 % of control

CC1CN1CC(O)C(O)CN1CC1C (centres undefined)
T/C (dose: 0.25 mg/kg/injection, schedule: Q01DX009 (ip), vehicle: saline): 100 % of control
T/C (dose: 0.4 mg/kg/injection, schedule: Q01DX009 (ip), vehicle: saline): 110 % of control
T/C (dose: 0.5 mg/kg/injection, schedule: Q01DX009 (ip), vehicle: saline): 107 % of control and 102 % of control
T/C (dose: 0.6 mg/kg/injection, schedule: Q01DX009 (ip), vehicle: saline): 118 % of control
T/C [12]: 150 % of control
T/C (dose: 0.8 mg/kg/injection, schedule: Q01DX009 (ip), vehicle: saline): 110 % of control
T/C (dose: 0.9 mg/kg/injection, schedule: Q01DX009 (ip), vehicle: saline): 153 % of control
T/C [13]: 93 % of control
T/C (dose: 2.0 mg/kg/injection, schedule: Q01DX009 (ip), vehicle: saline): 156 % of control and 151 % of control
T/C [14]: 106 % of control

COC12C(COC(=O)NCCO)C3=C(C(=O)C(C)=C(N)C3=O)N1CC1NC12 (centres undefined)
T/C (dose: 1.56 mg/kg/injection, schedule: Q01DX009 (ip), vehicle: Klucel (hydroxypropylcellulose) (HPC)): 98 % of control
T/C (dose: 3.12 mg/kg/injection, schedule: Q01DX009 (ip), vehicle: Klucel (hydroxypropylcellulose) (HPC)): 116 % of control and 120 % of control and 124 % of control
T/C [15]: 119 % of control
T/C [8]: 88 % of control and 180 % of control and 209 % of control
T/C [11]: 94 % of control

C/C=C(\C)C(=O)OC1C(C)C2(O)C(C=C(CO)CC3(O)C(=O)C(C)=CC32)C2C(C)(C)C12OC(=O)CCCCCCCCC (centres undefined)
T/C (dose: 0.13 mg/kg/injection, schedule: Q01DX009 (ip), vehicle: saline + alcohol): 102 % of control and 104 % of control
T/C (dose: 0.25 mg/kg/injection, schedule: Q01DX009 (ip), vehicle: saline + alcohol): 92 % of control and 94 % of control
T/C (dose: 0.5 mg/kg/injection, schedule: Q01DX009 (ip), vehicle: saline + alcohol): 92 % of control

C=CCN(CC=C)P(=O)(N1CC1C)N1CC1C (centres undefined)
T/C (dose: 0.31 mg/kg/injection, schedule: Q01DX009 (ip), vehicle: saline): 109 % of control
T/C [12]: 112 % of control
T/C [13]: 122 % of control
T/C [14]: 99 % of control

CCCCOC(=O)C(C)OC(=O)CCC (centres undefined)
T/C [8]: 112 % of control
T/C [9]: 108 % of control
T/C [3]: 104 % of control
T/C [4]: 122 % of control

O=C(Nc1cccc(C(F)(F)F)c1)c1ccc(C(=O)Nc2cccc(C(F)(F)F)c2)cc1
T/C [2]: 205 % of control
T/C [10]: 184 % of control
T/C [5]: 90 % of control

O=P(N1CCOCC1)(N1CC1)N1CC1
T/C [15]: 115 % of control
T/C (dose: 12.5 mg/kg/injection, schedule: Q01DX009 (ip), vehicle: saline): 118 % of control
